Experimental data taken from PubChem BioAssay (NCI).
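The compound was tested at five concentrations on cells cultured in 96-well plates, with a 48-hour exposure period. Definition used: TGI = concentration required for complete inhibition of growth.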 Where a SMILES comes first, the peptide text is derived from it. [ ]: non-standard residue; d: D form. The star is where a group is joined. Iva = CC[C](C)(N)C(=O)O; Boc = CC(C)(C)OC(=O)*; X52 = C1CCC(=NO*)C1

Tests used:
Experiment in all cases: NCI anticancer screen, dose series, 48 h
HCT-15 colon = system: HCT-15 colon
U251 CNS = system: U251 CNS
UACC-257 melanoma = system: UACC-257 melanoma
HT29 colon = system: HT29 colon
A498 renal = system: A498 renal
NCI-H522 lung = system: NCI-H522 lung
SF-268 CNS = system: SF-268 CNS
SF-295 CNS = system: SF-295 CNS
SK-OV-3 ovarian = system: SK-OV-3 ovarian
M14 melanoma = system: M14 melanoma
HL-60(TB) leukemia = system: HL-60(TB) leukemia
CAKI-1 renal = system: CAKI-1 renal
HOP-62 NSCLC = system: HOP-62 NSCLC
OVCAR-5 ovarian = system: OVCAR-5 ovarian
HCT-116 colon = system: HCT-116 colon
DU-145 prostate = system: DU-145 prostate
HS 578T breast = system: HS 578T breast
OVCAR-8 ovarian = system: OVCAR-8 ovarian
NCI/ADR-RES ovarian = system: NCI/ADR-RES ovarian
K-562 leukemia = system: K-562 leukemia

SMILES	TGI (HCT-15 colon)	TGI (U251 CNS)	TGI (UACC-257 melanoma)	TGI (HT29 colon)	TGI (A498 renal)	TGI (NCI-H522 lung)	TGI (SF-268 CNS)	TGI (SF-295 CNS)	TGI (SK-OV-3 ovarian)	TGI (M14 melanoma)	TGI (HL-60(TB) leukemia)	TGI (CAKI-1 renal)	TGI (HOP-62 NSCLC)	TGI (OVCAR-5 ovarian)	TGI (HCT-116 colon)	TGI (DU-145 prostate)	TGI (HS 578T breast)	TGI (OVCAR-8 ovarian)	TGI (NCI/ADR-RES ovarian)	TGI (K-562 leukemia)
COc1ccc(C2SCC(=O)N2NC(=O)c2ccncc2)cc1F (centres undefined)	> 100 µM	> 100 µM	> 100 µM	> 100 µM	> 100 µM	> 100 µM	> 100 µM	> 100 µM	> 100 µM	> 100 µM	> 100 µM	> 100 µM	> 100 µM	> 100 µM	> 100 µM	–	–	–	–	–
O=C(Nc1ccccc1)c1cc2ccccc2c(N=Nc2ccc([N+](=O)[O-])cc2)c1O	> 100 µM	> 100 µM	> 100 µM	> 100 µM	–	> 100 µM	> 100 µM	> 100 µM	> 100 µM	> 100 µM	> 100 µM	> 100 µM	> 100 µM	> 100 µM	> 100 µM	> 100 µM	> 100 µM	> 100 µM	> 100 µM	> 100 µM
CCCCN1CN2C(=O)C(C(=O)OCC)C(=O)c3sc4nc(SC)nc1c4c32 (centres undefined)	38 µM	33.7 µM	35.8 µM	40.5 µM	16.8 µM	35.4 µM	39.8 µM	30.8 µM	31.7 µM	40.1 µM	> 100 µM	32.9 µM	30.5 µM	32.6 µM	30.6 µM	35.4 µM	19.9 µM	36.8 µM	37.1 µM	77.9 µM
CCC(C)(NC(=O)C(C)NC(=O)OC(C)(C)C)C(=O)NC(C)C(=O)NC(C)(CC)C(=O)ON=C1CCCC1 (centres undefined) (Boc-A[Iva]A[Iva]-X52; configuration not given here)	> 100 µM	> 100 µM	–	–	> 100 µM	> 100 µM	–	> 100 µM	> 100 µM	> 100 µM	> 100 µM	> 100 µM	> 100 µM	> 100 µM	> 100 µM	> 100 µM	> 100 µM	> 100 µM	> 100 µM	> 100 µM
C1CSCCSCCSCCSC1	> 100 µM	> 100 µM	> 100 µM	> 100 µM	> 100 µM	> 100 µM	> 100 µM	> 100 µM	> 100 µM	> 100 µM	–	> 100 µM	> 100 µM	> 100 µM	> 100 µM	> 100 µM	> 100 µM	> 100 µM	> 100 µM	–
